Columns and labels:
NAMECs [1] = assay: NanoSight Nanoparticle Tracking Analysis of CM-P4 fractions of NAMEC culture; type: cell-based, human
Source text: FIG. 1 includes a TEM image and a graph. (A) is a TEM image of the P4 medium fraction of NAMECs treated with GW627368X (GW) for 4 days. Scale bar, 1 μm. (B) is a graph showing the number of particles in the CM-P4 fractions of NAMEC culture counted by using NanoSight Nanoparticle Tracking analysis. Top panel: Quantification of exosome release is shown as the ratio of [P4 GAPDH marker level]/[cell number]. Data are means±SEM (n=3). *P≤0.05. **P≤0.005. Bottom table: Quantification of exosome release is shown as the number of particles of the CM-P4 fractions released per cell measured by nanoparticle tracking analysis.
The isolated human mammary epithelial stem cells (NAMECs) were cultured in mammary epithelial cell basal medium (250 ml MCDB-170, 250 ml DMEM-F12, 1.2 g sodium bicarbonate, 2.5 μg EGF, 0.25 mg Hydrocortisone, 2.5 mg insulin, 35 mg BPE) with or without containing EP4 antagonist, i.e., GW627368X (GW) at 1 μg/ml, or AH23848 (AH) at 4 μg/ml, for 4 days. The culture medium was supplied with 0.5 μg/ml of GW or 2 μg/ml of AH23848 at the third day of the culturing period. For the induction of EP4 antagonist-induced exosomes from mouse mammary epithelial cells, cells were cultured in a medium containing 10 μg/ml of GW for 4 days.
The culture media were centrifuged at 300 g for 5 min to remove cells (P1), at 2,000 g for 20 min (P2), then at 10,000 g for 30 min (P3) all at 4° C. Dead cells and cell debris were removed at 300 g (P1) and 1200 g (P2). Finally, exosomes (P4) were separated from the supernatant by centrifugation at 110,000 g for 60 min. The P4 exosome pellet was washed once in PBS and then re-suspended in PBS for further application.

HMLE cells = assay: Exosome markers in CM-P4 fraction of non-stem HMLE cells; type: cell-based; conditions: 2 days treatment
Source text: FIG. 2 includes graphs and blots showing analyses of GW-treated NAMEC P4 fractions. CM-P4 GW-treated NAMECs were collected and subjected to (A) NanoSight Nanoparticle Tracking Analysis (NTA) and (B) Dynamic Light Scattering/Zeta Potential Analysis (DLS). […] D: particle diameter. RN: relative number. (C) is a blot showing the amounts of the CD44 stem cell marker and the CD81, CD9, TSG101, Alix, HSP70 and GAPDH exosome markers measured in the indicated CM-P4 fractions and cell lysates. The culture media and cell lysates were collected from the same number of NAMECs treated with vehicle (Crl), GW627368X (GW) or PGE2 (1 μM) for 4 days. (D) is a blot showing the amounts of the GAPDH and CD81 exosome markers and the CD44 stem cell marker measured in the CM-P4 fraction of NAMECs (CD44hi/CD24− stem cells) or CD44lo/CD24+ non-stem cells (HMLE cells) treated with vehicle (Crl) or GW for 2 days. 1×: P4 exosome fraction released by 1×10^6 cells; 2×: P4 exosome fraction released by 2×10^6 cells. […] (E) is a blot showing that the CD44 stem cell marker and GAPDH and CD81 exosome markers were measured in the indicated P4 conditioned medium fractions of NAMECs treated with vehicle (Crl), GW627368X (GW, 1 μg/ml), AH23848 (EP4 antagonist; 0.4, 2, 4 μg/ml), or AH6809 (EP1/2/3 antagonist; 0.8, 4, 8 μg/ml). […]

NAMECs [2] = assay: Resistance of NAMECs to 0.05% trypsin (MET); type: cell-based, human; conditions: 4 days treatment
Protocol: FIG. 3 includes a set of images and two graphs. (A) is a set of bright-field images of NAMECs treated with vehicle, GW627368X, Dynasore (1 μM), or GW627368X plus Dynasore (0.5, 1, 1.5 μM) for 4 days. Scale bar, 100 μm. (B) is a graph showing the percentage of NAMECs treated with vehicle, GW627368X, Dynasore (1 μM), or GW627368X plus Dynasore (0.75 and 1 μM) that were resistant to 0.05% trypsin. Data are means±SEM, (n=3). ***P≤0.001. (C) is a graph showing Boyden chamber migration of NAMECs treated with vehicle (Crl), GW627368X, Dynasore (1 μM), or GW627368X plus Dynasore (0.5, 0.75, 1 μM) for 4 days. Data are means±SEM (n=3). **P≤0.005. ***P≤0.001.

neural stem cells (NSCs) = assay: EV/exosome markers and SOX2 in neural stem cells; type: cell-based; conditions: GW for 4 days
Source text: FIG. 10 includes blots and a graph. (A) is a graph showing vesicle number analysis of GW-treated mesenchymal stem cells (MSCs) P4 fractions. The CM-P4 GW-treated MSCs were collected and subjected to NanoSight Nanoparticle Tracking Analysis (NTA). Quantification of EV/exosome release is shown as the ratio of [vesicle number]/[cell number]. Data are means±SEM (n=3). ***P≤0.001. (B) is a set of blots showing the protein contents measured in the EV/exosome fraction released by MSCs treated with vehicle DMSO (MSC) or EP4 antagonists (MSCGW). The culture media (D1-4: conditioned medium from day 1 to day 4; D5-8: conditioned medium from day 5 to day 8) were collected from MSCs treated with vehicle (MSC), or GW (MSCGW) for 8 days. (C) is a set of blots showing the protein contents measured in the EV/exosome fraction released by neural stem cells (NSCs) treated with vehicle DMSO or EP4 antagonists. The culture media were collected from […] treated with DMSO or GW for 4 days. EV/exosome protein released by the same number of NSCs was loaded in the Western blotting.
Isolated neural stem cells (NSCs) were cultured in NSC medium (225 ml low glucose DMEM, 225 ml F12, 50 ml vesicle-depleted Bovine serum) with or without an EP4 antagonist (GW at 20-30 μg/ml) for 4 days. The culture medium was supplied with 10-15 μg/ml of GW on the third day of the cultural period. […]

In the case of `CCOc1c2c(c(OCC)c3ccccc13)C(=O)N(c1ccc(CC(=O)NS(=O)(=O)c3ccccc3)cc1)C2` [GW627368X], the “concentration of released membrane vesicles” value (NAMECs [1]; CM-P4 fraction, 4 days, PGE2 1 μM) is reported as ~5.4×10^4 particle/cell, the “release of membrane vesicles compared to untreated and PGE2-treated NAMECs” value (NAMECs [1]; particle numbers in CM-P4) is reported as “significantly triggered the release of membrane vesicles” and the “exosome release from non-stem HMLE cells (CD81, CD44, GAPDH)” value (HMLE cells) is reported as “did not increase exosome release”. For the same molecule, the “resistance to disassociation by 0.05% trypsin” value (NAMECs [2]) was “more resistant”, the “content of exosomal markers CD81 and GAPDH in NSC culture” value (neural stem cells (NSCs)) was “increased” and the “expression level of NSC marker SOX2 vs non-treated NSCs” value (neural stem cells (NSCs)) was “much lower”.
